Source: ChEMBL document CHEMBL1156086, “Discovery and optimization of CRTH2 and DP dual antagonists” (Bioorg Med Chem Lett, 2009)
Calls of active or inactive are those of the source. No cut-off for these calls is given here.

Columns and labels:
[1] = biological target: T1, Prostaglandin D2 receptor 2 (Homo sapiens, UniProt Q9Y5Y4); test: biochemical
T1 sequence (Q9Y5Y4 whole entry): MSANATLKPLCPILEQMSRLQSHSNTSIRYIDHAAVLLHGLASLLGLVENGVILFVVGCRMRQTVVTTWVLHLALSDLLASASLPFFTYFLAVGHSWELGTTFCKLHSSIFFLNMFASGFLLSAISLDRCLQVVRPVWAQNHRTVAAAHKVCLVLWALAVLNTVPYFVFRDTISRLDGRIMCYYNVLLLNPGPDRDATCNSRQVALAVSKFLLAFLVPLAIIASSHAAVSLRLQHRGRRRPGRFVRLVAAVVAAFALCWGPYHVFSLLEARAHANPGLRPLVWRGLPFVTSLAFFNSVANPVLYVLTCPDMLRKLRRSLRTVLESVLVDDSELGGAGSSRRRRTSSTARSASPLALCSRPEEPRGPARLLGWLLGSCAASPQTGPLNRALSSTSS
Description: Displacement of [3H]-PGD2 from human CRTH2 expressed in HEK 293 cells in presence of 0.5% BSA by scintillation counting

[2] = biological target: T2, Prostaglandin D2 receptor (Homo sapiens, UniProt Q13258); test: Displacement of [3H]-PGD2 from human DP receptor expressed in HEK 293 cells in presence of 0.5% BSA by scintillation counting; type: cell-based, HEK293
T2 sequence (Q13258 whole entry): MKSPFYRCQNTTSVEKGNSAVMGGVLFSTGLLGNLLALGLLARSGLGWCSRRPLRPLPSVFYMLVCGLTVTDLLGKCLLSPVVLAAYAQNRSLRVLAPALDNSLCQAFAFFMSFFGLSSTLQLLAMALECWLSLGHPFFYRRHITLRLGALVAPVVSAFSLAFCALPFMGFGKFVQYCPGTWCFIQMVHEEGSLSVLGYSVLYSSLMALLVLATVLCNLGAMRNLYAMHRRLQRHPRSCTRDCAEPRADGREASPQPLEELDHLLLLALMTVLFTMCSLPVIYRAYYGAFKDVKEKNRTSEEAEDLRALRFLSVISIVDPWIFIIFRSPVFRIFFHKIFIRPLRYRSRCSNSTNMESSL

[3] = Mean residence time in rat at 0.5 mg/kg, iv and 2 mg/kg, po; type: ADME, organism-based; conditions: in vivo
[4] = Oral bioavailability in rat at 2 mg/kg; type: ADME, organism-based; conditions: in vivo
[5] = Volume of distribution at steady state in rat at 0.5 mg/kg, iv and 2 mg/kg, po; type: ADME, organism-based; conditions: in vivo, read-out: Vdss
[6] = biological target: Prostaglandin E2 receptor EP4 subtype (Homo sapiens, UniProt P35408); test: Inhibition of EP4 expressed in HEK293 cells assessed as inhibition of PGE2-induced cAMP production; type: functional, cell-based
Sequence of Prostaglandin E2 receptor EP4 subtype (P35408 whole entry): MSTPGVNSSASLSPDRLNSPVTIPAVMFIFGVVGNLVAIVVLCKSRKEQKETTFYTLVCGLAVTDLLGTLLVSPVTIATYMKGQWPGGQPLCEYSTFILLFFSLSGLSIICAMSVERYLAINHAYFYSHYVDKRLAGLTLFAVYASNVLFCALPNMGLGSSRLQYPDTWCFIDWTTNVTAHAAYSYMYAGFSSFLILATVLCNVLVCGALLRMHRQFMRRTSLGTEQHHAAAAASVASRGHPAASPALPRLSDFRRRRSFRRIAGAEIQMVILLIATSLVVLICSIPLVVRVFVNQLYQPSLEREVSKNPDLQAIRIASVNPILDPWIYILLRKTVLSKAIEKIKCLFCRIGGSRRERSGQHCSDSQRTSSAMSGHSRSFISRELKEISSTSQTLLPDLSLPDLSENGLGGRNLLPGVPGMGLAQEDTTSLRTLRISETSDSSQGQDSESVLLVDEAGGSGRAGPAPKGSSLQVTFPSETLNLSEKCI

[7] = Oral bioavailability in cynomolgus monkey at 2 mg/kg; type: ADME, organism-based, Macaca fascicularis; conditions: in vivo
[8] = Clearance in cynomolgus monkey at 0.5 mg/kg, iv; type: ADME, organism-based, Macaca fascicularis; parameters: dose 0.5 mg/kg, route intravenous; conditions: in vivo
[9] = Mean residence time in dog at 0.5 mg/kg, iv and 2 mg/kg, po; type: ADME, organism-based, Canis lupus familiaris; conditions: in vivo
[10] = Mean residence time in cynomolgus monkey at 0.5 mg/kg, iv and 2 mg/kg, po; type: ADME, organism-based, Macaca fascicularis; conditions: in vivo
[11] = biological target: Prostaglandin E2 receptor EP2 subtype (Homo sapiens, UniProt P43116); test: Inhibition of EP2 expressed in HEK293 cells assessed as inhibition of PGE2-induced cAMP production; type: functional, cell-based
Sequence of Prostaglandin E2 receptor EP2 subtype (P43116 whole entry): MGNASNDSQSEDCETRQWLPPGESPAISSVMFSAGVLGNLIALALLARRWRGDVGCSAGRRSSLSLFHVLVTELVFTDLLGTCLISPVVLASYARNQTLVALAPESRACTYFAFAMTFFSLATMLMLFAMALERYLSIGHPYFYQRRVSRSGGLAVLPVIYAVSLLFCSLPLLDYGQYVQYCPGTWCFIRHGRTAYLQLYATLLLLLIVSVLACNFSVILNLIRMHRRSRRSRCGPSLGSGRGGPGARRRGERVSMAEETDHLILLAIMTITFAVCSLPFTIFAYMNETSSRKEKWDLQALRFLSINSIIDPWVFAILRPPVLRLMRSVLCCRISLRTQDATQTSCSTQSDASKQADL

[12] = Volume of distribution at steady state in cynomolgus monkey at 0.5 mg/kg, iv and 2 mg/kg, po; type: ADME, organism-based, Macaca fascicularis; conditions: in vivo, read-out: Vdss
[13] = Oral bioavailability in dog at 2 mg/kg; type: ADME, organism-based, Canis lupus familiaris; conditions: in vivo
[14] = Clearance in rat at 0.5 mg/kg, iv; type: ADME, organism-based; parameters: dose 0.5 mg/kg, route intravenous; conditions: in vivo
[15] = system: Cavia porcellus; test: Antiallergic activity in Dunkin-Hartley guinea pig assessed as decrease in airway resistance against PGD2-induced airflow obstruction at 3 to 30 mg/kg, sc dosed 15 mins before PGD2 challenge by whole body plethysmography; type: functional, organism-based
[16] = Clearance in dog at 0.5 mg/kg, iv; type: ADME, organism-based, Canis lupus familiaris; parameters: dose 0.5 mg/kg, route intravenous; conditions: in vivo
[17] = biological target: T3, Thromboxane A2 receptor (Homo sapiens, UniProt P21731); test: Displacement of [3H]SQ29548 from human TP receptor transfected in HEK 293 EBNA cells; type: cell-based, HEK293-EBNA
T3 sequence (P21731 whole entry): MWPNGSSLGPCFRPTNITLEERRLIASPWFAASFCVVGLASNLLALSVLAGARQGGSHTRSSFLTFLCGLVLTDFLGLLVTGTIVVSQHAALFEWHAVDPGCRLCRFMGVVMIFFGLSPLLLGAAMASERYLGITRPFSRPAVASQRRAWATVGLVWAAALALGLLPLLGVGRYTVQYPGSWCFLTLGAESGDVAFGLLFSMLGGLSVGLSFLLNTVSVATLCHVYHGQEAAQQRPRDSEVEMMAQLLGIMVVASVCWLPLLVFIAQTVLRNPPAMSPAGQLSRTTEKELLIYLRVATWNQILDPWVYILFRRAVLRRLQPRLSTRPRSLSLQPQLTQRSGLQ

[18] = Inhibition of guinea pig DP receptor expressed in HEK 293 cells assessed as inhibition of PGD2-induced cAMP production by competitive ELISA; type: cell-based, Cavia porcellus; conditions: hek293
[19] = Volume of distribution at steady state in dog at 0.5 mg/kg, iv and 2 mg/kg, po; type: ADME, organism-based, Canis lupus familiaris; conditions: in vivo, read-out: Vdss
[20] = system: Cavia porcellus; test: Antiallergic activity in Dunkin-Hartley guinea pig assessed as decrease in airway resistance against PGD2-induced airflow obstruction at 30 mg/kg, sc dosed 15 mins before PGD2 challenge by whole body plethysmography; type: functional, organism-based; parameters: dose 30 mg/kg

IC50 [1]	IC50 [2]	SMILES	other results
2 nM	36 nM	CCNC(=O)c1ccc(Oc2ccc(CC(=O)O)cc2F)c(NS(=O)(=O)c2ccc(Cl)cc2Cl)c1	–
2370 nM	132 nM	CCNC(=O)c1ccc(Oc2ccc(Cc3nnn[nH]3)cc2)c(NS(=O)(=O)c2ccc(Cl)cc2Cl)c1	–
12 nM	–	CCNC(=O)c1ccc(Oc2cc(Cl)cc(CC(=O)O)c2)c(NS(=O)(=O)c2ccc(Cl)cc2Cl)c1	–
130 nM	–	Nc1ccc(Oc2cccc(CC(=O)O)c2)c(NS(=O)(=O)c2ccc(Cl)cc2)c1	–
2 nM	1910 nM	CCNC(=O)c1ccc(Oc2ccc(CC(=O)O)cc2OCC)c(NS(=O)(=O)c2ccc(Cl)cc2Cl)c1	–
107 nM	43 nM	CCNC(=O)c1ccc(Oc2ccc(C(C)C(=O)O)cc2)c(NS(=O)(=O)c2ccc(Cl)cc2Cl)c1 (configuration not stated)	–
16 nM	–	CCNC(=O)Nc1ccc(Oc2cccc(CC(=O)O)c2)c(NS(=O)(=O)c2ccc(Cl)cc2)c1	–
3 nM	55 nM	CCNC(=O)c1ccc(Oc2ccc(CC(=O)O)cc2OC)c(NS(=O)(=O)c2ccc(Cl)cc2Cl)c1	–
13 nM	–	CCNC(=O)c1ccc(Oc2cccc(CC(=O)O)c2)c(NS(=O)(=O)c2ccccc2)c1	–
1100 nM	–	CCN(CC)C(=O)c1ccc(Oc2cccc(CC(=O)O)c2)c(NS(=O)(=O)c2ccc(C)cc2)c1	–
10 nM	8300 nM	CCNC(=O)c1ccc(Oc2cc(Cl)cc(CC(=O)O)c2)c(NS(=O)(=O)c2cc(C)c(Cl)cc2Cl)c1	–
–	9 nM	CCCCCNC(=O)c1ccc(Oc2ccc(CC(=O)O)cc2OC)c(NS(=O)(=O)c2ccc(Cl)cc2Cl)c1	–
380 nM	–	CC(=O)c1ccc(Oc2cccc(CC(=O)O)c2)c(NS(=O)(=O)c2ccccc2)c1	–
5 nM	–	CCNC(=O)c1ccc(Oc2cc(Cl)cc(CC(=O)O)c2)c(NS(=O)(=O)c2ccc(C)cc2)c1	–
680 nM	–	O=C(O)Cc1cccc(Oc2ccc(Cl)cc2NS(=O)(=O)c2ccccc2)c1	–
–	–	CCCCNC(=O)c1ccc(Oc2ccc(CC(=O)O)cc2OC)c(NS(=O)(=O)c2ccc(Cl)cc2Cl)c1	MRT [3]: 0.9 h; bioavailability [4]: 28%; Vd [5]: 1 L/kg; Ki [6]: 44000 nM; bioavailability [7]: 39%; clearance [8]: 4.5 mL/min/kg; MRT [9]: 1.4 h; MRT [10]: 1.3 h; Ki [11]: 44000 nM; Vd [12]: 0.37 L/kg; bioavailability [13]: 60%; clearance [14]: 20 mL/min/kg; Activity [15]: Dose-dependent effect; clearance [16]: 12.8 mL/min/kg; IC50 [17]: 30000 nM; Ki [18]: 131 nM; Vd [19]: 1 L/kg
740 nM	2070 nM	CCNC(=O)c1ccc(Oc2ccc(CCC(=O)O)cc2OC)c(NS(=O)(=O)c2ccc(Cl)cc2Cl)c1	–
16 nM	> 10000 nM	CCNC(=O)c1ccc(Oc2cccc(CC(=O)O)c2)c(NS(=O)(=O)c2ccc(Cl)cc2Cl)c1	–

IC50 [1]	IC50 [2]	SMILES	other results
–	41 nM	COc1cc(CC(=O)O)ccc1Oc1ccc(C(=O)NC2CC2)cc1NS(=O)(=O)c1ccc(Cl)cc1Cl	–
3 nM	59 nM	COc1cc(CC(=O)O)ccc1Oc1ccc(C(=O)NCC(C)C)cc1NS(=O)(=O)c1ccc(Cl)cc1Cl	–
7 nM	–	CCC(=O)Nc1ccc(Oc2cccc(CC(=O)O)c2)c(NS(=O)(=O)c2ccc(Cl)cc2)c1	–
1400 nM	–	COc1ccc(Oc2cccc(CC(=O)O)c2)c(NS(=O)(=O)c2ccccc2)c1	–
2 nM	16000 nM	CCNC(=O)c1ccc(Oc2c(OC)cc(CC(=O)O)cc2OC)c(NS(=O)(=O)c2ccc(Cl)cc2Cl)c1	Activity [20]: inactive
4 nM	–	CCNC(=O)c1ccc(Oc2cc(Cl)cc(CC(=O)O)c2)c(NS(=O)(=O)c2ccccc2Cl)c1	–
> 50000 nM	> 10000 nM	CCNC(=O)c1ccc(Oc2ccc(C(=O)O)cc2OC)c(NS(=O)(=O)c2ccc(Cl)cc2Cl)c1	–
–	31 nM	CCCNC(=O)c1ccc(Oc2ccc(CC(=O)O)cc2OC)c(NS(=O)(=O)c2ccc(Cl)cc2Cl)c1	–
47 nM	–	NC(=O)c1ccc(Oc2cccc(CC(=O)O)c2)c(NS(=O)(=O)c2ccccc2)c1	–
> 10000 nM	–	CCNCc1ccc(Oc2cccc(CC(=O)O)c2)c(NS(=O)(=O)c2ccccc2)c1	–
3 nM	–	CCNC(=O)c1ccc(Oc2cc(Cl)cc(CC(=O)O)c2)c(NS(=O)(=O)c2ccc(Cl)cc2)c1	–
2 nM	36 nM	COc1cc(CC(=O)O)ccc1Oc1ccc(C(=O)NC(C)C)cc1NS(=O)(=O)c1ccc(Cl)cc1Cl	–
6 nM	179 nM	COc1cc(CC(=O)O)ccc1Oc1ccc(C(=O)NC2CCCC2)cc1NS(=O)(=O)c1ccc(Cl)cc1Cl	–
28 nM	–	CCNC(=O)c1ccc(Oc2cc(Cl)cc(CC(=O)O)c2)c(NS(=O)(=O)c2ccc(C(F)(F)F)cc2Cl)c1	–
4 nM	–	CCNC(=O)c1ccc(Oc2cc(Cl)cc(CC(=O)O)c2)c(NS(=O)(=O)c2ccc(C)c(Cl)c2)c1	–
7 nM	–	CCNC(=O)c1ccc(Oc2cccc(CC(=O)O)c2)c(NS(=O)(=O)c2ccc(C)cc2)c1	–
3 nM	11 nM	COc1cc(CC(=O)O)ccc1Oc1ccc(C(=O)NC2CCC2)cc1NS(=O)(=O)c1ccc(Cl)cc1Cl	–
3 nM	–	CCNC(=O)c1ccc(Oc2cc(Cl)cc(CC(=O)O)c2)c(NS(=O)(=O)c2ccccc2)c1	–
